Measured values published in US10246456B2, “IRAK4 inhibiting agents” (BIOGEN MA INC., priority 2014, dated 2019).

Target: IRAK4 (Homo sapiens (Human), UniProt Q9NWZ3)
Assay: IRAK-4 AlphaScreen biochemical kinase assay
Conditions: 1 nM IRAK4, 1 mM ATP, 3.5 h at RT
Protocol: The biochemical assay is in a AlphaScreen format. The kinase reaction is based on the IRAK-4 phosphorylation of a biotin labeled peptide. The phosphopeptide is incubated with anti-phosphothreonine antibody as well as streptavidin- and protein A-coated beads. Binding of the protein-A coated beads to the antibody and the streptavidin beads to the peptide, leads to an energy transfer from one bead to the other, ultimately producing a luminescent/fluorescent signal.

Sequence of IRAK4 (Q9NWZ3 whole entry, species assumed): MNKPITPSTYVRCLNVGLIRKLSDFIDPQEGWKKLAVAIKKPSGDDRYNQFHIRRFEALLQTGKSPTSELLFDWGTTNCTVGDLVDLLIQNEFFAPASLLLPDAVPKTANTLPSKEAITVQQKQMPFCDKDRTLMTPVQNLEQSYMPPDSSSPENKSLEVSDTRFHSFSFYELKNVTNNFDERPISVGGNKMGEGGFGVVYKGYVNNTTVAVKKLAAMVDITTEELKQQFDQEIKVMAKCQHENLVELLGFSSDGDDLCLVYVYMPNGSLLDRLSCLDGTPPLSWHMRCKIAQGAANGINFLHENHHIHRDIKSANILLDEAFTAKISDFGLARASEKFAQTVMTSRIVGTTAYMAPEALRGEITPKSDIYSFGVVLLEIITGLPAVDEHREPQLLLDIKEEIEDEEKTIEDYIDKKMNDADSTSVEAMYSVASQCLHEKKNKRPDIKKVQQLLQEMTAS

Compound	IC50 [µM]
CC(N)c1cc(-c2ccc3cnn(-c4cccc(C(F)(F)F)n4)c3c2)ccn1 (stereo not shown) [Example 91, 1-(4-(1-(6-(trifluoromethyl)pyridin-2-yl)-1H-indazol-6-yl)pyridin-2-yl)ethanamine]	0.1 to 1
N#Cc1cncc(-c2ccc3cnn(-c4cccc(C(F)(F)F)n4)c3c2)n1 [Example 92, 6-(1-(6-(trifluoromethyl)pyridin-2-yl)-1H-indazol-6-yl)pyrazine-2-carbonitrile]	1 to 10
NCc1cncc(-c2ccc3cnn(-c4cccc(C(F)(F)F)n4)c3c2)n1 [Example 93, (6-(1-(6-(trifluoromethyl)pyridin-2-yl)-1H-indazol-6-yl)pyrazin-2-yl)methanamine]	1 to 10
N#Cc1nccc(-c2ccc3cnn(-c4cccc(C(F)(F)F)n4)c3c2)n1 [Example 94, 4-(1-(6-(trifluoromethyl)pyridin-2-yl)-1H-indazol-6-yl)pyrimidine-2-carbonitrile]	1 to 10
NCc1nccc(-c2ccc3cnn(-c4cccc(C(F)(F)F)n4)c3c2)n1 [Example 95, (4-(1-(6-(trifluoromethyl)pyridin-2-yl)-1H-indazol-6-yl)pyrimidin-2-yl)methanamine]	1 to 10
CN1CCCC1c1cccc(-c2ccc3cnn(-c4cccc(C(F)(F)F)n4)c3c2)n1 (stereo not shown) [Example 98, 6-(6-(1-methylpyrrolidin-2-yl)pyridin-2-yl)-1-(6-(trifluoromethyl)pyridin-2-yl)-1H-indazole]	1 to 10
Cc1cccc(-n2ncc3c(CN)cc(-c4cccc(C(C)N)n4)cc32)n1 (stereo not shown) [Example 104, 1-(6-(4-(aminomethyl)-1-(6-methylpyridin-2-yl)-1H-indazol-6-yl)pyridin-2-yl)ethanamine]	1 to 10
CC(=O)NCc1cc(-c2cccc(C(C)N)n2)cc2c1cnn2-c1cccc(C)n1 (stereo not shown) [Example 105, N-((6-(6-(1-aminoethyl)pyridin-2-yl)-1-(6-methylpyridin-2-yl)-1H-indazol-4-yl)methyl)acetamide]	0.1 to 1

Second part, the compound after the results:

IC50 [µM]	Compound
< 0.1	CC(N)c1cncc(-c2ccc3cnn(-c4cccc(C(F)(F)F)n4)c3c2)c1 (stereo not shown) [Example 90, 1-(5-(1-(6-(trifluoromethyl)pyridin-2-yl)-1H-indazol-6-yl)pyridin-3-yl)ethanamine]
0.1 to 1	Nc1cncc(-c2ccc3cnn(-c4cccc(C(F)(F)F)n4)c3c2)n1 [Example 96, 6-(1-(6-(trifluoromethyl)pyridin-2-yl)-1H-indazol-6-yl)pyrazin-2-amine]
0.1 to 1	FC(F)(F)c1cccc(-n2ncc3ccc(-c4cccc(C5CCCN5)n4)cc32)n1 (stereo not shown) [Example 97, 6-(6-(pyrrolidin-2-yl)pyridin-2-yl)-1-(6-(trifluoromethyl)pyridin-2-yl)-1H-indazole]
< 0.1	Cc1cccc(-c2ncc3ccc(-c4cccc(C(C)N)n4)cn23)n1 (stereo not shown) [Example 99, 1-(6-(3-(6-methylpyridin-2-yl)imidazo[1,5-a]pyridin-6-yl)pyridin-2-yl)ethanamine]
< 0.1	Cc1cccc(-n2ncc3c(N)cc(-c4cccc(C(C)N)n4)cc32)n1 (stereo not shown) [Example 100, 6-(6-(1-aminoethyl)pyridin-2-yl)-1-(6-methylpyridin-2-yl)-1H-indazol-4-amine]
< 0.1	CNc1cc(-c2cccc(C(C)N)n2)cc2c1cnn2-c1cccc(C)n1 (stereo not shown) [Example 101, 6-(6-(1-aminoethyl)pyridin-2-yl)-N-methyl-1-(6-methylpyridin-2-yl)-1H-indazol-4-amine]
< 0.1	Cc1cccc(-n2ncc3c(N(C)C)cc(-c4cccc(C(C)N)n4)cc32)n1 (stereo not shown) [Example 102, 6-(6-(1-aminoethyl)pyridin-2-yl)-N,N-dimethyl-1-(6-methylpyridin-2-yl)-1H-indazol-4-amine]
0.1 to 1	CC(=O)Nc1cc(-c2cccc(C(C)N)n2)cc2c1cnn2-c1cccc(C)n1 (stereo not shown) [Example 103, N-(6-(6-(1-aminoethyl)pyridin-2-yl)-1-(6-methylpyridin-2-yl)-1H-indazol-4-yl)acetamide]
